Among the data in patent US11649218B2, “C-Abl tyrosine kinase inhibitory compound embodiments and methods of making and using the same” (The USA, as represented by the Secretary, Dept. of Health …, priority 2018, dated 2023) are Efficacy values, retold here.

SMILES strings stand for the structures.

The experiment has as its system Leukemia K562 cell. Description: Leukemia K562 cell proliferation/viability assay (CellTiterGlo, 48 hours). Set-up: unit not given here. The experiment is classed as cell-based. As to conditions: K562 cells. The protocol:
C-Abl is encoded by the ABL1 gene (NCBI Gene ID NO. 25). […] Assays for determining if a small molecule inhibits c-Abl activity are known. Non-limiting examples include cell proliferation assays using cancer cells that are BCR-Abl positive and depend on BCR-Abl for growth, such as the leukemia cell line K562. […] In some embodiments described herein, compounds are tested for ability to reduce K562 cell proliferation in an HTS adapted assay which measures cell viability using the reagent CellTiterGlo after 48 hours treatment.
On the technique in general: Cellular ATP, detected with luciferase, serves as a proxy for viable cell number.
`CN1C(=O)c2ccc(-c3cccc(N(C)S(C)(=O)=O)c3)cc2Oc2ccc(OC(F)(F)F)cc21` [NCGC00384267]: the Efficacy is recorded as −48.4. To `O=C(O)c1ccc2c(c1)C(=O)Nc1cc(OC(F)(F)F)ccc1O2` [NCGC00387752] belongs 0.0; to `O=C1Nc2cc(OC(F)(F)F)ccc2Oc2ccc(-c3cccc(S(=O)(=O)NCCO)c3)cc21` [NCGC00373064, N-(2-Hydroxyethyl)-3-(11-oxo-8-(trifluoromethoxy)-10,11-dihydrodibenzo[b,f][1,4]oxazepin-2-yl)benzenesulfonamide], −103.3. Take `NS(=O)(=O)c1cccc(-c2ccc3c(c2)C(=O)Nc2cc(OC(F)(F)F)ccc2O3)c1` [NCGC00371364, 3-(11-Oxo-8-(trifluoromethoxy)-10,11-dihydrodibenzo[b,f][1,4]oxazepin-2-yl)benzenesulfonamide]: the Efficacy is on record as −94.9. As to `O=C1Nc2cc(OC(F)(F)F)ccc2Nc2ccc(-c3cccc(C(=O)N4CCNCC4)c3)cc21` [NCGC00355569, 2-(3-(Piperazine-1-carbonyl)phenyl)-8-(trifluoromethoxy)-5,10-dihydro-11H-dibenzo[b,e][1,4]diazepin-11-one], the Efficacy is given as −97.3. In turn, `O=C1Nc2cc(OC(F)(F)F)ccc2Oc2ccc(-c3cccc(-c4nn[nH]n4)c3)cc21` [NCGC00420743, 2-(3-(2H-Tetrazol-5-yl)phenyl)-8-(trifluoromethoxy)dibenzo[b,f][1,4]oxazepin-11(10H)-one] came in with an Efficacy of 0.0. With `O=C1Nc2cc(OC(F)(F)F)ccc2Oc2ccc(-c3ccncc3)cc21` [NCGC00371309, 2-(Pyridin-4-yl)-8-(trifluoromethoxyl)dibenzo[b,f][1,4]oxazepin-11(10H)-one] the figure was −77.6; with `O=C1Nc2cc(OC(F)(F)F)ccc2Oc2ccc(-c3ccnc4[nH]ccc34)cc21` [NCGC00373059, 2-(1H-Pyrrolo[2,3-b]pyridin-4-yl)-8-(trifluoromethoxy)dibenzo[b,f][1.4]oxazepin-11(10H)-one], −52.9; with `CN1C(=O)c2ccc(-c3cccc(NS(C)(=O)=O)c3)cc2Oc2ccc(OC(F)(F)F)cc21` [NCGC00384234], −54.1. For the molecule `O=C1Nc2cc(OC(F)(F)F)ccc2Oc2ccc(-c3cnn(CCO)c3)cc21` [NCGC00387403, 2-(1-(2-Hydroxyethyl)-1H-pyrazol-4-yl)-8-(trifluoromethoxy)dibenzo[b,f][1,4]oxazepin-11(10H)-one], the Efficacy is on record as −37.6. To `NC(=O)Cn1cc(-c2ccc3c(c2)C(=O)Nc2cc(OC(F)(F)F)ccc2O3)cn1` [NCGC00387404, 2-(4-(11-Oxo-8-(trifluoromethoxy)-10,11-dihydrodibenzo[b,f][1,4]oxazepin-2-yl)-11-pyrazol-1-yl)acetamide] belongs −8.8; to `O=C1Nc2cc(OC(F)(F)F)ccc2Oc2ccc(-c3cncnc3)cc21` [NCGC00371310, 2-(Pyrimidin-5-yl)-8-(trifluoromethoxy)dibenzo[b,f][1,4]oxazepin-11(10H)-one], −15.0; to `COC(=O)c1ccc2c(c1)C(=O)Nc1cc(OC(F)(F)F)ccc1O2` [NCGC00387394], 0.0.

In the case of `O=C(NCCO)c1cccc(-c2cc(Nc3ccc(OC(F)(F)F)cc3)ncn2)c1` [GNF-5], the Efficacy is −85.8. As to `CC(C)(O)Cn1cc(-c2ccc3c(c2)C(=O)Nc2cc(OC(F)(F)F)ccc2O3)cn1` [NCGC00387294, 2-(1-(2-Hydroxy-2-methylpropyl)-1H-pyrazol-4-yl)-8-(trifluoromethoxy)dibenzo[b,f][1,4]oxazepin-11(10H)-one], the Efficacy is listed as −82.3. Consider `CS(=O)(=O)Nc1cccc(-c2ccc3c(c2)C(N)=Nc2cc(OC(F)(F)F)ccc2O3)c1` [NCGC00373124, N-(3-(11-Amino-8-(trifluoromethoxy)dibenzo[b,f][1,4]oxazepin-2-yl)phenyl)methanesulfonamide], for which the Efficacy is on record as −87.5. `N#CCn1cc(-c2ccc3c(c2)C(=O)Nc2cc(OC(F)(F)F)ccc2O3)cn1` [NCGC00388626, 2-(4-(11-Oxo-8-(trifluoromethoxy)-10,11-dihydrodibenzo[b,f][1,4]oxazepin-2-yl)-1H-pyrazol-1-yl)acetonitrile]: the Efficacy is on record as −34.8. To `Nc1cc(-c2ccc3c(c2)C(=O)Nc2cc(OC(F)(F)F)ccc2O3)ccn1` [NCGC00373061, 2-(2-Aminopyridin-4-yl)-8-(trifluoromethoxy)dibenzo[b,f][1,4]oxazepin-11(10H)-one] belongs −87.0; to `CN1CCN(c2cc(-c3ccc4c(c3)C(=O)Nc3cc(OC(F)(F)F)ccc3O4)ccn2)CC1` [NCGC00373063, 2-(2-(4-Methylpiperazin-1-yl)pyridin-4-yl)-8-(trifluoromethoxy)dibenzo[b,f][1,4]oxazepin-11(10H)-one], −107.9.

As for `CN1C(=O)c2cc(-c3cccc(NS(C)(=O)=O)c3)ccc2Oc2ccc(OC(F)(F)F)cc21` [NCGC00384233], the Efficacy was −75.1. With `O=C1Nc2cc(C(F)(F)F)ccc2Oc2ccc(-c3ccnc(N4CCOCC4)c3)cc21` [NCGC00481506, 2-(2-Morpholinopyridin-4-yl)-8-(trifluoromethyl)dibenzo[b,f][1,4]oxazepin-11(10H)-one] the figure was −87.5; with `CC(C)(O)c1cccc(-c2ccc3c(c2)C(=O)Nc2cc(OC(F)(F)F)ccc2O3)c1` [NCGC00411876, 2-(3-(2-Hydroxypropan-2-yl)phenyl)-8-(trifluoromethoxy)dibenzo[b,f][1,4]oxazepin-11(10H)-one], −86.3; with `CN(C)CCn1cc(-c2ccc3c(c2)C(=O)Nc2cc(OC(F)(F)F)ccc2O3)cn1` [NCGC00387297, 2-(1-(2-(Dimethylamino)ethyl)-1H-pyrazol-4-yl)-8-(trifluoromethoxy)dibenzo[b,f][1,4]oxazepin-11(10H)-one], −115.7. `N#Cc1ccc2c(c1)NC(=O)c1cc(-c3ccnc(N4CCOCC4)c3)ccc1O2` [NCGC00481503, 2-(2-Morpholinopyridin-4-yl)-11-oxo-10,11-dihydrodibenzo[b,f][1,4]oxazepine-8-carbonitrile]: the Efficacy is listed as −80.5. With `O=C1Nc2cc(OC(F)(F)F)ccc2Nc2ccc(-c3cccc(C(=O)N4CCOCC4)c3)cc21` [NCGC00355558, 2-(3-(Morpholine-4-carbonyl)phenyl)-8-(trifluoromethoxy)-5,10-dihydro-11H-dibenzo[b,e][1,4]diazepin-11-one] the figure was −89.5; with `NCc1ccc(-c2ccc3c(c2)C(=O)Nc2cc(OC(F)(F)F)ccc2O3)s1` [NCGC00388547, 2-(5-(Aminomethyl)thiophen-2-yl)-8-(trifluoromethoxy)dibenzo[b,f][1,4]oxazepin-11(10H)-one], −91.7. With `O=C1Nc2cc(OC(F)(F)F)ccc2Oc2ccc(-c3ccc(CN4CCOCC4)s3)cc21` [NCGC00388536, 2-(5-(Morpholinomethyl)thiophen-2-yl)-8-(trifluoromethoxy)dibenzo[b,f][1,4]oxazepin-11(10H)-one] the figure was −83.1; with `O=C1Nc2cc(OC(F)(F)F)ccc2Oc2ccc(-c3cccc(-c4ccn[nH]4)c3)cc21` [NCGC00411874, 2-(3-(1H-Pyrazol-5-yl)phenyl)-8-(trifluoromethoxy)dibenzo[b,f][1,4]oxazepin-11(10H)-one], −84.3; with `CS(=O)(=O)Nc1cccc(-c2ccc3c(c2)C(=O)Nc2cc(OC(F)(F)F)ccc2O3)c1` [NCGC00356665, N-(3-(11-Oxo-8-(trifluoromethoxy)-10,11-dihydrodibenzo[b,f][1,4]oxazepin-2-yl)phenyl)methanesulfonamide], −83.8. For `CS(=O)(=O)Nc1cccc(-c2ccc3c(c2)Oc2ccc(OC(F)(F)F)cc2C(=O)N3)c1` [NCGC00384295, N-(3-(11-Oxo-2-(trifluoromethoxy)-10,11-dihydrodibenzo[b,f][1,4]oxazepin-7-yl)phenyl)methanesulfonamide], the Efficacy is −80.6. With `O=C(NCCO)c1cccc(-c2ccc3c(c2)C(=O)Nc2cc(OC(F)(F)F)ccc2O3)c1` [NCGC00356688, N-(2-Hydroxyethyl)-3-(11-oxo-8-(trifluoromethoxy)-10H-dihydrodibenzo[b,f][1,4]oxazepin-2-yl)benzamide] the figure was −89.8; with `NC(=O)c1cccc(-c2ccc3c(c2)C(=O)Nc2cc(OC(F)(F)F)ccc2N3)c1` [NCGC00354777, 3-(11-Oxo-8-(trifluoromethoxy)-10,11-dihydro-5H-dibenzo[b,e][1,4]diazepin-2-yl)benzamide], −95.9.

On to `O=C1Nc2cc(OC(F)(F)F)ccc2Oc2ccc(B(O)O)cc21` [NCGC00387437, (11-Oxo-8-(trifluoromethoxy)-10,11-dihydrodibenzo[b,f][1,4]oxazepin-2-yl)boronic acid], for which the Efficacy is reported as −82.6. Consider `NCCNC(=O)c1cccc(-c2ccc3c(c2)C(=O)Nc2cc(OC(F)(F)F)ccc2N3)c1` [NCGC00355568, N-(2-Aminoethyl)-3-(11-oxo-8-(trifluoromethoxy)-10,11-dihydro-5H-dibenzo[b,e][1,4]diazepin-2-yl)benzamide], for which the Efficacy is given as −81.4.

For the molecule `O=C1Nc2cc(OCCC(F)(F)F)ccc2Oc2ccc(-c3ccnc(N4CCOCC4)c3)cc21` [NCGC00481507, 2-(2-Morpholinopyridin-4-yl)-8-(3,3,3-trifluoropropoxy)dibenzo[b,f][1,4]oxazepin-11(10H)-one], the Efficacy is on record as −85.5. To `CC(=O)NCc1ccc(-c2ccc3c(c2)C(=O)Nc2cc(OC(F)(F)F)ccc2O3)s1` [NCGC00388557, N-((5-(11-Oxo-8-(trifluoromethoxy)-10,11-dihydrodibenzo[b,f][1,4]oxazepin-2-yl)thiophen-2-yl)methyl)acetamide] belongs −81.9.
